In PubChem BioAssay AID651552 (The Scripps Research Institute Molecular Screening Center, 2012):
Activity calls are given as the source filed them. How the calls were made is not given here.

Target: beta-lactamase TEM-1 reporter (bacterial) (UniProt Q932Y6)
Test: beta-lactamase reporter inhibitor potency, dose response, artefact control for NOD2-RIPK2 interaction inhibitor project, BLA reporter cells, FRET fluorescence (AID 651552)
Conditions: HEK293 BLA reporter cells

C=CCn1c(O)c(C2=c3ccccc3=NC2=O)c2ccccc21
IC50: > 49.7 µM (inactive)

COc1ccc(C[C@H]2NC[C@H](O)[C@H]2OC(C)=O)cc1
IC50: > 49.8 µM (inactive)
